The subject of experiment [1] is MCF7 cells. The experiment is described as follows: RT-qPCR of HERV, repeat and immune gene mRNA in MCF7 cells. The format is cell-based, human. Here is the method:
(§1) HP1 small interfering RNAs (siRNAs) were described previously. PADI4 (J-012471-05) and Glyceraldehyde-3-phosphate dehydrogenase control siRNAs were purchased from Dharmacon. Cells were harvested 72 h after transfection with DharmaFECT 1 (T 2001-03). Total RNA from PBMCs and MCF7 cells was extracted with RNeasy (Qiagen) and quantified with an ND-1000 (Nanodrop). After DNase treatment (Roche), reverse transcription was performed using SuperScript III (Invitrogen) and random hexanucleotides according to the manufacturer's instructions. Complementary DNA was quantified by RT-qPCR as previously described. Proteins were extracted as described previously and detected by Western blotting. Acid extraction of histones was conducted as described by Shechter, et al., [78].
For orientation: Quantitative PCR measures a nucleic acid by following its amplification.

Experiment [2] relates to MCF7 cells. Briefly: Immunoblot of PADI4 and H3cit8K9me3 in MCF7 cells. The format is cell-based, human.
Description: Anti-H3cit8K9me3 antibody was produced in rabbits using a peptide coupled to KLH with the following sequence: ARTKQTA (cit)(Kme3)[…]. Anti-PADI4 (ChIP: P4749; immunoblots: ab50332), anti-H3cit(2,8,17) (ab5103), anti-H3(ab1791), and anti-H3K9me3 (ab8898) antibodies were purchased from Abcam. Anti-HP1α (ChIP: 1H5; immunoblots: 2G9) and anti-Brg1 (2E12) were from Euromedex. Calcium ionophore A23187 (used on HEK293 and MCF7 cells) and ionomycin (only ionophore tolerated by Jurkat cells), and 17-ß-estradiol (E2758) were purchased from Sigma. DNA was labeled with 4′,6-diamidino-2-phenylindole (DAPI; Invitrogen) at a concentration of 150 ng.ml^−1. […] Peptides were carefully quantified by amino acid analysis, and the presence of the modifications was confirmed by mass spectrometry. […]
as §1

In experiment [3] the test system is MCF7 cells. Briefly: ChIP on HERV LTRs and gene promoters in MCF7 cells. In kind it is cell-based, human. Here is the method: Values are averaged from 3 independent experiments.
Ionophores were used at 1 µM.

The subject of experiment [4] is Jurkat T cells. Briefly: PADI4 production in Jurkat T cells after estrogen/ionophore treatment (data not shown). In kind it is cell-based.
The test system of experiment [5] is Jurkat T cells. The experiment is described as follows: RT-qPCR of TNFα, IL8 and PADI4 mRNA in Jurkat T cells. The format is cell-based. As to conditions: 200 µM Cl-amidine, 72 h; cells stimulated by ionomycin and PMA; duplicate.
Description: (B) Total RNA was isolated from Jurkat cells either un-stimulated or treated with ionomycin and PMA for 2 hour. Changes in mRNA levels for the indicated genes were quantified by RT-qPCR. The data are presented as the means ± SEM of triplicate experiments. […] (D) Total RNA was isolated from Jurkat cells treated as in B minus or plus PADI-inhibitor cl-amidine as indicated. Changes in mRNA levels for the indicated genes were quantified by RT-qPCR. The data are presented as the means ± SEM of duplicate experiments.
Jurkat cells were treated with phorbol myristate acetate (PMA) at 40 nM. Ionophores were used at 1 µM. PADI4 inhibitor, Cl-amidine (from Bertin Pharma) was dissolved in 1× PBS as a 50 mM stock solution. MCF7 and Jurkat cells were treated with 200 µM Cl-amidine in complete cell culture medium for exactly 72 h.
Where [6] appears, read: E2 (200 nM, 24 h) + A23187 (5 µM, 30 min), minus or plus 200 µM Cl-amidine, relative to un-induced.

Entries after “also recorded” stand apart in the source; their conditions may differ.

Take 17-ß-estradiol [E2/A23187]: the “expression of HERV-H/env62, ERVWE1 and the selected cytokine genes” value in the experiment with MCF7 cells [1] (setting [6]) was “Cl-amidine-sensitive increase in expression”. Further, the “expression of HERV-H/env62” value in the experiment with MCF7 cells [1] (E2 and A23187, 24 h, normalized to RPLP0, three replicates) was “increases the expression”. Besides, the “total levels of H3cit8K9me3 modification” value in the experiment on MCF7 cells [2] (200 nM E2 24 h, then 5 µM A23187 30 min) is on record as “increases total levels”. Moreover, in the experiment with MCF7 cells [2] (200 nM E2 24 h, then 5 µM A23187 30 min in Locke's solution), the “total levels of PADI4” value is listed as “increases total levels; also recorded: induced”. Also, in the experiment on MCF7 cells [3] (E2+A23187, anti-H3cit (2, 8, 17) or anti-H3cit8K9me3), the “levels of citrullinated histone H3 at HERV-H, HERV-W/LTR and TNFα promoter” value is given as “locally increases levels of citrullinated histone H3”. Besides, in the experiment on MCF7 cells [3] (E2+A23187, anti-HP1α), the “levels of HP1α recruitment at HERV-H, HERV-W/LTR and TNFα promoter” value is “markedly decreased”. Moreover, in the experiment on Jurkat T cells [4], the “production of PADI4” value is reported as “stimulated production”.

With `NC(=O)[C@H](CCCN=C(N)CCl)NC(=O)c1ccccc1` [Cl-amidine], the “expression of HERV-H/env62, ERVWE1 and the selected cytokine genes” value in the experiment on MCF7 cells [1] (200 µM Cl-amidine, 72 h, no E2/A23187, four replicates) is “reduced expression”; in the experiment with MCF7 cells [1] (setting [6]) it was “Cl-amidine-sensitive increase in expression”. The “levels of H3Cit8K9me3” value with MCF7 cells [2] (200 µM Cl-amidine, 72 h) is given as “decreased levels of H3Cit8K9me3”. For the same compound, the “levels of HP1α occupancy at HERV-H, HERV-W/LTR and TNFα promoter” value with MCF7 cells [3] (E2+A23187 plus 200 µM Cl-amidine, anti-HP1α) is given as “partially restored”. In addition, in the experiment on Jurkat T cells [5], the “TNFα and IL8 mRNA accumulation” value is “reduced the kinetic and the abundance”.

Values taken from paper PMC3441713, “Citrullination of Histone H3 Interferes with HP1-Mediated Transcriptional Repression” (PLoS Genetics, 2012).
